Reference: US20190350955A1, “METHODS AND PHARMACEUTICAL COMPOSITIONS FOR THE TREATMENT OF CARDIOMYOPATHIES” (INSERM (Institut National de la Sante et de la Recherche …, priority 2016, published 2019)

How the values were obtained:
[1] = system: neonatal rat cardiomyocytes (NRC); assay: Western blot of AMPK phosphorylation and Nmrk2 protein in NRC; format: cell-based; conditions: AICAR 500 μM, 48 h
Method: Proteins were homogenized in a lysis buffer (Tris-HCl pH 7.5 50 mM, NP40 Igepal 1%, NaCl 150 mM, EDTA 1 mM, DTT 1 mM, Glycerol 10%) in the presence of proteases.
phosphatases and deacetylases inhibitors (PMSF 0.5 mM, NaF 50 mM, PPiNa 5 mM, Roche protease cocktail inhibitor 1/100, Santa Cruz deacetylase cocktail inhibitor 1/100). Equal amounts of proteins (10 to 20 μg) were separated on SDS-PAGE and transferred to nitrocellulose membranes. Proteins were detected by overnight incubation at 4° C. with primary antibodies, followed by IRDye 700 or IRDye800 fluorescent antibodies (Li-Cor Biosciences. 1/2500) and scanned on an Odyssey CLx Infrared Imaging System (Li-Cor Biosciences).
(§1) Isolation and Treatments of Neonatal Rat Cardiomyocytes (NRC) NRC were isolated as described previously (Diguet et al., 2011). 1-day-old rat pups were killed by decapitation and the cardiac ventricles were harvested and minced into 1 to 2-mm wide cubes with scissors. After washing with Tyrode solution, heart fragments were subjected up to 10 rounds of digestion with 0.05 mg/ml of Liberase Blendzyme 4 (Roche Applied Science) in 10 ml oxygenated Tyrode solution under agitation at 37° C. for 10 minutes. The supernatant of the first digestion was discarded and the following digestions were centrifuged and the cell pellet dissociated in 2 ml of DMEM, 10% FCS. […]

[2] = system: neonatal rat cardiomyocytes (NRC); assay: NAD+ and NADH levels in NRC; format: cell-based; conditions: AICAR treatment
Method: For cell cultures, the wells were washed twice with PBS and scraped on ice in HClO4 0.5M (100 μl/well in 12-well plate). Acid extracts were neutralized with a half volume of KOH 1M/K2HPO4-KH2PO4 0.33 M pH 7.5. Heat denaturation was selective for NAD^+ in this condition. Measures were made on a volume of […], of non heated extracts (NADt) or 25 μl of heated extracts (NADH) (diluted 1/10 to 1/20).
For both types of extracts (buffered ethanol or HClO4) we added 100 μL of reaction buffer (600 mM ethanol, 0.5 mM 3-(4.5-dimethylthiazol-2-yl)-2.5-diphenyltetrazolium bromide (MTT), 2 mM phenazine ethosulfate (PES), 120 mM Bicine (pH 7.8), yeast alcohol dehydrogenase (SIGMA A3263>300 u/mg.) 0.05 mg/ml. Kinetics of the reaction (OD at 550 nm, every 30 seconds for 40 minutes) was followed on a TECAN Infinite F500 microplate reader. NAD was quantified in duplicates for each sample by comparison to a range of standard NAD^+ concentration using linear regression curve equation method between NAD^+ standard concentrations and the slope of the reaction in OD units/sec. NAD^+/NADH was obtained by the formula ([NADt]−[NADH])/[NADH]. Cell extracts were quantified for protein concentration determined by Bradford assay.
Isolation and Treatments of Neonatal Rat Cardiomyocytes (NRC) NRC were isolated as described previously (Diguet et al., 2011). […]

[3] = system: Nmrk2; assay: RT qPCR of Nmrk2 mRNA in NRC; format: cell-based, rat; conditions: AICAR treatment
Method: cDNAs were reverse transcribed from RNA (1.5 μg) extracted in TRIzol (Thermofisher) from cell cultures and tissues using the Superscript II Reverse Transcriptase (Life Technologies). Quantitative PCR was carried out on a Light Cycler 480 (Roche Diagnostics) using Fast Start SYBR Green Master (Roche Diagnostics). Quantification of gene expression was calculated as R=2^ΔCt(Ref Cp−target Cp), with Hprt used as a as reference. Primers were designed using the NCBI Primer-BLAST software. Primer sequences are available on request.
as §1, with “FCS. The different fractions were pooled and centrifuged on a discontinuous Percoll gradient (bottom 58.5%. top 40.5%. 30 min. 3000 rpm) to enrich in cardiomyocytes at the interface between the 2 Percoll solutions.” for “FCS.”

[4] = system: Nmrk2 promoter; assay: Nmrk2 promoter luciferase reporter assay in NRC; format: cell-based, rat; conditions: NRC, AICAR 500 μM
Method: Isolation and Treatments of Neonatal Rat Cardiomyocytes (NRC) NRC were isolated as described previously (Diguet et al., 2011). 1-day-old rat pups were killed by decapitation and the cardiac ventricles were harvested and minced into 1 to 2-mm wide cubes with scissors. After washing with Tyrode solution, heart fragments were subjected up to 10 rounds of digestion with 0.05 mg/ml of Liberase Blendzyme 4 (Roche Applied Science) in 10 ml oxygenated Tyrode solution under agitation at 37° C. for 10 minutes. The supernatant of the first digestion was discarded and the following digestions were centrifuged and the cell pellet dissociated in 2 ml of DMEM, 10% FCS. The different fractions were pooled and centrifuged on a discontinuous Percoll gradient (bottom 58.5%. top 40.5%. 30 min. 3000 rpm) to enrich in cardiomyocytes at the interface between the 2 Percoll solutions. Non cardiac cells containing mainly fibroblasts were at the top of the tubes. Neonatal cardiomyocytes were seeded at a density 5×10^5 cells/well in 6-well plates coated with 10 μg/ml of laminin (BD Biosciences) in DMEM without pyruvate, with glucose 4.5 g/l, 10% horse serum, 5% FCS and cultured at 37° C. in 1% CO, atmosphere. To assay the impact on NAD^+ and Nmrk2 expression, Azaserin and FK866 drugs were added in the culture medium at day 5 and renewed everyday when the treatment was prolonged over several days. The same was done for NAD^+, NR and AICAR (5-aminoimidazole-4-carboxamide-1-β-D-ribofuranoside). AICAR was administrated for 24 h only. Doses are indicated in the legends. For treatment of transfected cells (see next section), AICAR, FK866 and PPAR agonists and antagonist were administrated 1 day after transfection. PPAR agonists: GW7647 for PPARα, GW501516 for PPARβ/δ and GW1929 for PPARγ; PPAR antagonists: GW6471 PPARα, GSK3787 for PPARβ/δ and GW9662 for PPARγ were ordered from SIGMA ALDRICH CHIMIE, Saint Quentin Fallavier, France.
The transcription initiation site of mouse Nmrk2 promoter was determined by 5′RACE and was conform to the reported site in the Genebank (NM_027120.2). The promoter of the mouse Nmrk2 gene was cloned from C57B16/N genomic DNA by PCR, and inserted into a pGL4.10[luc2] luciferase reporter plasmid (Promega prod no E6651). Subsequent deletions were performed by enzymatic digestion or primer mediated subcloning of the original fragment. 2.5×10^5 cardiomyocytes in 12-well plates were co-transfected at day 2 of culture with 1 μg of Nmrk2 pGL4.10[luc2] constructs and 100 ng of pGL4.73[hRluc/SV40] Vector (Promega prod no E6911) as an internal control of transfection efficiency using Lipofectamine 2000 (Lifetechnology) as indicated by the supplier. In the case of AICAR treatment, Luciferase activity was analyzed 48 h later with the Dual-Luciferase Assay System (Promega).
The pcDNA3 vectors harboring dominant negative AMPK, PPARα, PPARβ and PPARγ as well as RXR genes were kindly provided by Pr. Michel Raymondjean (El Hadri et al. (2015). AMPK Signaling Involvement for the Repression of the IL-1beta-Induced Group IIA Secretory Phospholipase A2 Expression in VSMCs. Journal 10, e0132498; Ravaux et al. (2007). Inhibition of interleukin-1 beta-induced group 11A secretory phospholipase A2 expression by peroxisome proliferator-activated receptors (PPARs) in rat vascular smooth muscle cells: cooperation between PPARbeta and the proto-oncogene BCL-6. Journal 27, 8374-8387; Woods et al. (2000). Characterization of the role of AMP-activated protein kinase in the regulation of glucose-activated gene expression using constitutively active and dominant negative forms of the kinase. Journal 20, 6704-6711). These vectors were cotransfected at a dose of 100 ng/well in 24-well plates with 500 ng of Nmrk2 luciferase constructs.

NC(=O)c1ncn([C@@H]2O[C@H](COP(=O)(O)O)[C@@H](O)[C@H]2O)c1N [AICAR, 5-Aminoimidazole-4-carboxamide ribonucleotide]
AMPK phosphorylation [1]: stimulated
Nmrk2 expression at the protein level [1]: induced
NAD+ or NADH levels [2]: did not modulate
Nmrk2 expression (mRNA) [3]: robustly induced
full-length p3009-Luc Nmrk2 reporter response [4]: highly responsive
p581-Luc Nmrk2 reporter response [4]: modestly responsive
